Data on nine compounds can be found in patent publication US20240376121A1, “COMPOUNDS AND USES THEREOF” (Foghorn Therapeutics Inc., priority 2021, published 2024).

The target in test [1] is T1, HiBit-BRG1 fusion protein (Homo sapiens, UniProt P51532).
T1 construct: expressed in transfected cells
As to the kind of experiment: HiBiT-BRG1 cell-based degradation assay (Nano-Glo HiBiT Lytic Detection). As to conditions: stable HeLa cell line expressing HiBit-BRG1 and LgBit, 24 h incubation; for Dmax: top dose 30 μM, read-out: BRG1 HiBit Degradation Maximum (%); for DC50: read-out: BRMG1 HiBit Degradation IC50. A digest of the protocol:
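HeLa cells stably expressing HiBiT-BRG1 and LgBiT treated 24 h with 10-point 3-fold dilutions (top 30 μM, duplicate). Luminescence read after Nano-Glo HiBiT lytic reagent; % degradation relative to DMSO (high control) and 2 μM reference BRM/BRG1 degrader (low control).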

Test [2] addresses T2, HiBit-BRM fusion protein (Homo sapiens, UniProt P51531).
T2 construct: expressed in transfected cells
The test can be described thus: HiBiT-BRM cell-based degradation assay (Nano-Glo HiBiT Lytic Detection). As to conditions: stable HeLa cell line expressing HiBiT-BRM, 24 h incubation; for BRM HiBit Degradation Maximum (%): top dose 30 μM; for DC50: read-out: BRM HiBit Degradation IC50. In short, it runs like this: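 HeLa cells stably expressing HiBiT-BRM were treated for 24 h with compounds (10-point 3-fold dilutions, 30 μM final top dose, in duplicate). HiBiT was detected by lytic LgBiT complementation luminescence. % degradation was normalized to DMSO (high control) and 2 μM of a reference BRM/BRG1 degrader (low control).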

T2 sequence (P51531 whole entry, the tested form may be a part): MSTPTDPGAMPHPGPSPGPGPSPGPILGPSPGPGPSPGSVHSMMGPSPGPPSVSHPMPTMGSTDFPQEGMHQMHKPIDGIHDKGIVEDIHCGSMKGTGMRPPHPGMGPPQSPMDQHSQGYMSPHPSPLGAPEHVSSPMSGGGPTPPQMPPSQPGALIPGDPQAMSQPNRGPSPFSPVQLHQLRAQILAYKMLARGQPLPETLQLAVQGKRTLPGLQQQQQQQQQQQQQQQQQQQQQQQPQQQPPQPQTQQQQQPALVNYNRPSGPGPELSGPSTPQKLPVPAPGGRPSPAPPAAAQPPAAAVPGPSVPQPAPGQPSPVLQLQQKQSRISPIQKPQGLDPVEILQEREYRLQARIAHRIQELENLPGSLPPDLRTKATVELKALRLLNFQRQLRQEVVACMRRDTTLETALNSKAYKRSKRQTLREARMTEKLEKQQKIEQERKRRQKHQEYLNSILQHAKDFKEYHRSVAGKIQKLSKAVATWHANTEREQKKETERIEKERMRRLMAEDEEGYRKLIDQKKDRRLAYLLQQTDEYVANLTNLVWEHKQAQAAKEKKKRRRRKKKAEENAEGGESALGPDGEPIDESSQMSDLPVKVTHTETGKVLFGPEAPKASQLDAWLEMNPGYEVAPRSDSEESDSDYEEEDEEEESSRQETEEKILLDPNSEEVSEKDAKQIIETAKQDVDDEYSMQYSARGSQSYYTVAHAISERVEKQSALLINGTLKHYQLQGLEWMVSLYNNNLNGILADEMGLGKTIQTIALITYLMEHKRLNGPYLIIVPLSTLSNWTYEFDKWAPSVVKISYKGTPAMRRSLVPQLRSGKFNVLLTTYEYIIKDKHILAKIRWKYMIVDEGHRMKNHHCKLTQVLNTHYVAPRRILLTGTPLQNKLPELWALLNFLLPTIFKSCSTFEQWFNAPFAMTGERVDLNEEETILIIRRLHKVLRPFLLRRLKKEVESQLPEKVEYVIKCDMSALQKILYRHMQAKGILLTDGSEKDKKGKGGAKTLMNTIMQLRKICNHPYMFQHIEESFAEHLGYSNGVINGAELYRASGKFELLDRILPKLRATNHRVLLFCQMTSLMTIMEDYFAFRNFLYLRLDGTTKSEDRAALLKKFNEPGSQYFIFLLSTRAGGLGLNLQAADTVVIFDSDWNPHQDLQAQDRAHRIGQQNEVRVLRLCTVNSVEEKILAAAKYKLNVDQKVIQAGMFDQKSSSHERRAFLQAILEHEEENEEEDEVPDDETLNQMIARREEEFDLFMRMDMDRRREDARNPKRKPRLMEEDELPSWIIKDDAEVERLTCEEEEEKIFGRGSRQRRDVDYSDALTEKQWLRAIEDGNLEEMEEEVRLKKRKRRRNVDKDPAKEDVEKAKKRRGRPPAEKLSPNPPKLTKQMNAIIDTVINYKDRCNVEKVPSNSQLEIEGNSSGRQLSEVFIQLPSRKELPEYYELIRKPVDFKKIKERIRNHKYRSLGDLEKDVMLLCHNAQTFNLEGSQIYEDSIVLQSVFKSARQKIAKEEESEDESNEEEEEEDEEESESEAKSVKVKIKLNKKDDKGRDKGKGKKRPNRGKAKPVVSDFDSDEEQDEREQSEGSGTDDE
T1 sequence (P51532 whole entry, the tested form may be a part): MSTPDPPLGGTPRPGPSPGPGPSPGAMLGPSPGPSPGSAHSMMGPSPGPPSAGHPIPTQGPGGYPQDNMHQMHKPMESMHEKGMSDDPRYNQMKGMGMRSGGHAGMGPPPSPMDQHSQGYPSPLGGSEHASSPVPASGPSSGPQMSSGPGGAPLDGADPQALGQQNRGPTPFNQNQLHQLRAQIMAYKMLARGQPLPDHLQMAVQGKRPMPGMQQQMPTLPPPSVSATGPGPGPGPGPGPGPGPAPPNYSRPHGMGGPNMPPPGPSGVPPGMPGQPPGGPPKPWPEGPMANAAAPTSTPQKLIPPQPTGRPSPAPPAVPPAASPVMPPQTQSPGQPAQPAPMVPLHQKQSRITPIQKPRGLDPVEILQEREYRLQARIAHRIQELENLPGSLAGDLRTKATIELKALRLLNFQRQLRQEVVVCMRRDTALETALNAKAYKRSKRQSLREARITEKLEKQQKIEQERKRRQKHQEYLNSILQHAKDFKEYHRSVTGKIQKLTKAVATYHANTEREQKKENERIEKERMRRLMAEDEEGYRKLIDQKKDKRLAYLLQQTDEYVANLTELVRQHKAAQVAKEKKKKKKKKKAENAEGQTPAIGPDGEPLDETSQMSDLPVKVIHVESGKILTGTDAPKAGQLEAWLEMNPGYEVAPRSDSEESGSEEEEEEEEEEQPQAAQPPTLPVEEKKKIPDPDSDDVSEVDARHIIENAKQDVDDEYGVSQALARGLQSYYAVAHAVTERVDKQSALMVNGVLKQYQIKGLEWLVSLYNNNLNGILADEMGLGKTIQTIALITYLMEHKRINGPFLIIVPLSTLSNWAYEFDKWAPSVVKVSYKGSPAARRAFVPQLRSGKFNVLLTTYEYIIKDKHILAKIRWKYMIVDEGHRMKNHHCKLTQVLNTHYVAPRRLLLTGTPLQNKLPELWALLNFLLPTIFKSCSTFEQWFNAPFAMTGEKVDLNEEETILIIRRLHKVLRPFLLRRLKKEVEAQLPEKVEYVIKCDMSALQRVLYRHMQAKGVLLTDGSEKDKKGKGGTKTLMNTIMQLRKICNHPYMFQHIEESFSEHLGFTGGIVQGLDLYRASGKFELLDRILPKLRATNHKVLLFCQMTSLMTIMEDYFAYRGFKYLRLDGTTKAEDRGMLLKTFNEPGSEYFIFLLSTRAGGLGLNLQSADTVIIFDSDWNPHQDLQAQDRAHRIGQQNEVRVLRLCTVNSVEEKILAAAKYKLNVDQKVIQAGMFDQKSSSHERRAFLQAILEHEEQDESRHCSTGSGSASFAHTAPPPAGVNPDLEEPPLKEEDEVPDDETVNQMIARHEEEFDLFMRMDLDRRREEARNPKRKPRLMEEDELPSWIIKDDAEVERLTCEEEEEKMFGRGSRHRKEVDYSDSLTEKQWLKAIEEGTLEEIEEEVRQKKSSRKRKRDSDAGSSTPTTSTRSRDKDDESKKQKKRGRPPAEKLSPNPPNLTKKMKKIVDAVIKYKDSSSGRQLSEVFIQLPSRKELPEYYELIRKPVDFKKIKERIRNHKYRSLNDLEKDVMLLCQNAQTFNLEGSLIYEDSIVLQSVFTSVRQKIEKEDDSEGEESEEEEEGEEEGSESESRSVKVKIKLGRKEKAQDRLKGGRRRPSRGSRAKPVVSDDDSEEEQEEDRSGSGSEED

In the case of `Cc1ncsc1-c1ccc([C@H](C)NC(=O)[C@@H]2C[C@@H](O)CN2C(=O)[C@@H](c2cc(OCCNC(=O)[C@H]3CCc4sc5nnc(-c6ccccc6O)cc5c4C3)no2)C(C)C)cc1` [Compound 45, (S)-N-(2-((5-((R)-1-((2S,4R)-4-hydroxy-2-(((S)-1-(4-(4-methylthiazol-5-yl)phenyl)ethyl)carbamoyl)pyrrolidin-1-yl)-3-methyl-1-oxobutan-2-yl)isoxazol-3-yl)oxy)ethyl)-3-(2-hydroxyphenyl)-5,6,7,8-tetrahydrobenzo[4,5]thieno[2,3-c]pyridazine-6-carboxamide], in test [1], the Dmax is less than 50% and the DC50 was not below 1000 nM. In addition, in test [2], the “BRM HiBit Degradation Maximum (%)” value is given as “B (“B” indicates maximum degradation ≥ 50%)” and the DC50 is not below 100 nM.

Turning to `Cc1ncsc1-c1ccc([C@H](C)NC(=O)[C@@H]2C[C@@H](O)CN2C(=O)[C@@H](c2cc(OCCNC(=O)[C@@H]3CCc4sc5nnc(-c6ccccc6O)cc5c4C3)no2)C(C)C)cc1` [Compound 46, (R)-N-(2-((5-((R)-1-((2S,4R)-4-hydroxy-2-(((S)-1-(4-(4-methylthiazol-5-yl)phenyl)ethyl)carbamoyl)pyrrolidin-1-yl)-3-methyl-1-oxobutan-2-yl)isoxazol-3-yl)oxy)ethyl)-3-(2-hydroxyphenyl)-5,6,7,8-tetrahydrobenzo[4,5]thieno[2,3-c]pyridazine-6-carboxamide], in test [1], the Dmax is less than 50% and the DC50 is not below 1000 nM. Further, in test [2], the “BRM HiBit Degradation Maximum (%)” value is “C (“C” indicates maximum degradation < 50%)” and the DC50 was not below 1000 nM.

For `Cc1ncsc1-c1ccc([C@H](C)NC(=O)[C@@H]2C[C@@H](O)CN2C(=O)[C@@H](c2cc(C3CCN(C(=O)[C@H]4CCc5sc6nnc(-c7ccccc7O)cc6c5C4)CC3)no2)C(C)C)cc1` [Compound 47, (2S,4R)-4-hydroxy-1-((R)-2-(3-(1-((S)-3-(2-hydroxyphenyl)-5,6,7,8-tetrahydrobenzo[4,5]thieno[2,3-c]pyridazine-6-carbonyl)piperidin-4-yl)isoxazol-5-yl)-3-methylbutanoyl)-N-((S)-1-(4-(4-methylthiazol-5-yl)phenyl)ethyl)pyrrolidine-2-carboxamide], in test [1], the Dmax is less than 50% and the DC50 was not below 1000 nM. Moreover, in test [2], the “BRM HiBit Degradation Maximum (%)” value is “A (“A” indicates maximum degradation ≥ 75%)” and the DC50 was not below 100 nM.

For the compound `Cc1ncsc1-c1ccc([C@H](C)NC(=O)[C@@H]2C[C@@H](O)CN2C(=O)[C@@H](c2cc(C3CCN(C(=O)[C@@H]4CCc5sc6nnc(-c7ccccc7O)cc6c5C4)CC3)no2)C(C)C)cc1` [Compound 48, (2S,4R)-4-hydroxy-1-((R)-2-(3-(1-((R)-3-(2-hydroxyphenyl)-5,6,7,8-tetrahydrobenzo[4,5]thieno[2,3-c]pyridazine-6-carbonyl)piperidin-4-yl)isoxazol-5-yl)-3-methylbutanoyl)-N-((S)-1-(4-(4-methylthiazol-5-yl)phenyl)ethyl)pyrrolidine-2-carboxamide], in test [1], the Dmax is less than 50% and the DC50 was not below 1000 nM. Besides, in test [2], the “BRM HiBit Degradation Maximum (%)” value was “C (“C” indicates maximum degradation < 50%)” and the DC50 is not below 1000 nM.

For `Cc1ncsc1-c1ccc([C@H](C)NC(=O)[C@@H]2C[C@@H](O)CN2C(=O)[C@@H](c2cc(OCCN3CCN(c4cc5nnc(-c6ccccc6O)cc5s4)CC3)no2)C(C)C)cc1` [Compound 49, (2S,4R)-4-hydroxy-1-((R)-2-(3-(2-(4-(3-(2-hydroxyphenyl)thieno[3,2-c]pyridazin-6-yl)piperazin-1-yl)ethoxy)isoxazol-5-yl)-3-methylbutanoyl)-N-((S)-1-(4-(4-methylthiazol-5-yl)phenyl)ethyl)pyrrolidine-2-carboxamide], in test [1], the Dmax was not below 75% and the DC50 was not below 10 nM. Also, in test [2], the “BRM HiBit Degradation Maximum (%)” value is on record as “A (“A” indicates maximum degradation ≥ 75%)” and the DC50 is less than 10 nM.

For the compound `Cc1ncsc1-c1ccc([C@H](C)NC(=O)[C@@H]2C[C@@H](O)CN2C(=O)[C@@H](NC(=O)[C@H]2CC[C@@H](c3sc4nnc(-c5ccccc5O)cc4c3C)CC2)C(C)(C)C)cc1` [Compound 50, (2S,4R)-4-hydroxy-1-((S)-2-((1s,4R)-4-(3-(2-hydroxyphenyl)-5-methylthieno[2,3-c]pyridazin-6-yl)cyclohexane-1-carboxamido)-3,3-dimethylbutanoyl)-N-((S)-1-(4-(4-methylthiazol-5-yl)phenyl)ethyl)pyrrolidine-2-carboxamide], in test [1], the Dmax was less than 50% and the DC50 is not below 1000 nM. In addition, in test [2], the “BRM HiBit Degradation Maximum (%)” value is given as “C (“C” indicates maximum degradation < 50%)” and the DC50 was not below 1000 nM.

Consider `Cc1ncsc1-c1ccc([C@H](C)NC(=O)[C@@H]2C[C@@H](O)CN2C(=O)[C@@H](NC(=O)[C@H]2CC[C@H](c3sc4nnc(-c5ccccc5O)cc4c3C)CC2)C(C)(C)C)cc1` [Compound 51, (2S,4R)-4-hydroxy-1-((S)-2-((1r,4S)-4-(3-(2-hydroxyphenyl)-5-methylthieno[2,3-c]pyridazin-6-yl)cyclohexane-1-carboxamido)-3,3-dimethylbutanoyl)-N-((S)-1-(4-(4-methylthiazol-5-yl)phenyl)ethyl)pyrrolidine-2-carboxamide], for which, in test [1], the Dmax was less than 50% and the DC50 is not below 1000 nM. Further, in test [2], the “BRM HiBit Degradation Maximum (%)” value is reported as “C (“C” indicates maximum degradation < 50%)” and the DC50 was not below 1000 nM.

In the case of `Cc1ncsc1-c1ccc([C@H](C)NC(=O)[C@@H]2C[C@@H](O)CN2C(=O)[C@@H](c2cc(N3CCN(C(=O)[C@H]4CCc5sc6nnc(-c7ccccc7O)cc6c5C4)CC3)no2)C(C)C)cc1` [Compound 52, (2S,4R)-4-hydroxy-1-((R)-2-(3-(4-((S)-3-(2-hydroxyphenyl)-5,6,7,8-tetrahydrobenzo[4,5]thieno[2,3-c]pyridazine-6-carbonyl)piperazin-1-yl)isoxazol-5-yl)-3-methylbutanoyl)-N-((S)-1-(4-(4-methylthiazol-5-yl)phenyl)ethyl)pyrrolidine-2-carboxamide], in test [1], the Dmax is less than 50% and the DC50 is not below 1000 nM. Further, in test [2], the “BRM HiBit Degradation Maximum (%)” value is reported as “C (“C” indicates maximum degradation < 50%)” and the DC50 is not below 1000 nM.

`Cc1ncsc1-c1ccc([C@H](C)NC(=O)[C@@H]2C[C@@H](O)CN2C(=O)[C@@H](c2cc(OCCN3CCC(O)(c4sc5nnc(-c6ccccc6O)cc5c4C)CC3)no2)C(C)C)cc1` [Compound 54, (2S,4R)-4-hydroxy-1-((R)-2-(3-(2-(4-hydroxy-4-(3-(2-hydroxyphenyl)-5-methylthieno[2,3-c]pyridazin-6-yl)piperidin-1-yl)ethoxy)isoxazol-5-yl)-3-methylbutanoyl)-N-((S)-1-(4-(4-methylthiazol-5-yl)phenyl)ethyl)pyrrolidine-2-carboxamide]: in test [1], the Dmax was less than 50% and the DC50 was not below 1000 nM. Also, in test [2], the “BRM HiBit Degradation Maximum (%)” value is “A (“A” indicates maximum degradation ≥ 75%)” and the DC50 was not below 10 nM.
